Measurements as given in patent US8686144B2, “Condensed pyridine derivatives useful as potent inhibitors of the protein kinase CK2” (Commissariat a l'Energie Atomique et aux Energie Alternative, priority 2009, dated 2014).

Legend:
[1] = tested on: double stranded oligonucleotide CAATCGGATCGAATTCGATCCGATTG; assay: DNA intercalation by FID (Fluorescence Intercalator Displacement, thiazole orange); format: binding; details: 10 μM compound
Protocol: (§1) 1. Materials and Methods • Effect of compounds of formula (I) on CK2 activity is measured according to Prudent et al. (Prudent, R. et al. (2008) Mol Cell Biochem 316(1-2): 71-85): compounds were tested in a radioactive assay performed in a final volume of 18 μL containing 3 μL of compounds at the indicated concentrations, 3 μL, of CK2α (36 ng) and a mixture containing 100 μM of peptide substrate ([…], SEQ ID No: 1), 10 mM MgCl2, and 100 μM [γ-^32P]-ATP. Assays were performed at room temperature for 5 min before termination by the addition of 60 μL of 4% TCA. ^32P incorporation into the peptide substrate was determined as previously described in Filhol et al. (Biochemistry 29: 9928-36, 1990). • Effect of compounds of formula (I) on c-kit activity is measured according to the manufacturer's recommendations (Millipore, reference 14-559): in a final reaction volume of 25 μL, c-Kit (5-10 mU) is incubated with 8 mM MOPS pH 7.0, 0.2 mM EDTA, 10 mM MnCl2, 25 μM ATP, 0.1 mg/mL poly(Glu, Tyr) 4:1, 10 mM MgAcetate and [γ-33P-ATP] […] Following an incubation of 30 minutes at 37° C., reaction mixture is resolved on an agarose gel (1% agarose) and DNA topoisomers are quantified by densitometric analysis. • Effect of compounds of formula (I) on DNA intercalation. DNA intercalation was performed using FID (Fluorescence Intercalator Displacement). […] In this assay, compound auto-fluorescence was negative.

HeLa cells [2] = assay: cell cycle distribution analysis (propidium iodide), HeLa; format: cell-based, human; details: 5 μM, 24 hours
Protocol: (§2) Cells previously treated with Compound 1 and Compound 2 in example 4 are then submitted to a cell cycle analysis following propidium iodide incorportation.
(§3) Cell cycle distribution analysis: cells were plated in 6-well plates. The following day, cells were treated with 5 μM compounds or an equivalent amount of DMSO. After 24 hours, cells were harvested, fixed with ethanol 70% for 30 minutes, and labeled with propidium iodide 10 μg/mL for 30 min. DNA content was analysed with FACScalibur and Cell Quest software.

CK2 = assay: cellular CK2 activity assay (YFP-based CK2 activity reporter in HeLa cells); format: cell-based, human; details: 24 hours incubation, FIGS. 2A and 2B
Protocol: Cellular CK2 activity assay: The plasmid pEYFPc1 expressing a chimeric YFP-based CK2 activity reporter was designed by adding six CK2 consensus phosphorylation sites at the C terminus of the YFP protein (pEYFPc1-SβS). pEYFPc1-SβS was obtained from pEYFPc1-CK2β after two subsequent rounds of mutations with the Quickchange-Site Directed mutagenesis kit (Stratagene) using for mutagenesis 1:
Then, the cells were collected and the washed pellets were solubilized for […] in ice with 100μΛ of lysis buffer (Tris 50 mM pH=7.4, 0.15 M NaCl, EDTA 2 mM, Triton X100 1/100, phosphatase inhibitor cocktail 2 (Sigma) 1/100, and leupeptine, aprotinine, AEBSF according to the manufacturer recommendations).

c-Kit = target: T1, c-Kit (Homo sapiens, UniProt P10721); assay: c-kit kinase activity assay (Millipore 14-559); format: biochemical; details: 10 μM compound
T1 construct: purchased Millipore 14-559
T1 sequence (P10721 26-976): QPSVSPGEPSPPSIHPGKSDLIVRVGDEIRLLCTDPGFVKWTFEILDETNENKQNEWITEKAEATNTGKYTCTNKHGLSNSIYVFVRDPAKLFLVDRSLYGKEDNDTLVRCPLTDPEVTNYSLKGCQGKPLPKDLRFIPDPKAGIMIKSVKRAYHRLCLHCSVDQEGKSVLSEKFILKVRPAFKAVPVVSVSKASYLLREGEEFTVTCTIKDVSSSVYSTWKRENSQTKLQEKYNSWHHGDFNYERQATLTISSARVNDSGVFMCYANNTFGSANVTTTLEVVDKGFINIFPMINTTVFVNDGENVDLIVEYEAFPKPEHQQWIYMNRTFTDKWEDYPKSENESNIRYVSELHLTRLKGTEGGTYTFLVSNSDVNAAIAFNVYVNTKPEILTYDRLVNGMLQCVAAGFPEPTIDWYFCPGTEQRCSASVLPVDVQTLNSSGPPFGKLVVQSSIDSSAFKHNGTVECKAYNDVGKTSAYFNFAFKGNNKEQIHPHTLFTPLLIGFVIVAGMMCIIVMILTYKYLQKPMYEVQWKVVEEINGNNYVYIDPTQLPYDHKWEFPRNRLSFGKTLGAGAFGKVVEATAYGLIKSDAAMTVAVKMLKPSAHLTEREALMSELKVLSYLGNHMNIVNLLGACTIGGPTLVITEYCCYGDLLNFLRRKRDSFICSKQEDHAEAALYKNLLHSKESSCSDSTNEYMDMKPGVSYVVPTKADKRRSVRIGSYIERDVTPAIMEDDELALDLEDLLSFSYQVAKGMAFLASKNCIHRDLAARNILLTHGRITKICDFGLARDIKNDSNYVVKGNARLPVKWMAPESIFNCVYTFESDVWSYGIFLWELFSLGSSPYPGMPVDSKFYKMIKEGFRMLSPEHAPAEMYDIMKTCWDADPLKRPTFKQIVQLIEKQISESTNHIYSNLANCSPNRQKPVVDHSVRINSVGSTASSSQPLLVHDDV
Protocol: as §1

CK2α = CK2α (Homo sapiens, UniProt P68400); assay: CK2 radioactive kinase assay (32P incorporation into peptide substrate); format: biochemical; details: 100 μM ATP; for % remaining CK2 activity (10 μM): 10 μM compound
CK2α, sequence (P68400 whole entry): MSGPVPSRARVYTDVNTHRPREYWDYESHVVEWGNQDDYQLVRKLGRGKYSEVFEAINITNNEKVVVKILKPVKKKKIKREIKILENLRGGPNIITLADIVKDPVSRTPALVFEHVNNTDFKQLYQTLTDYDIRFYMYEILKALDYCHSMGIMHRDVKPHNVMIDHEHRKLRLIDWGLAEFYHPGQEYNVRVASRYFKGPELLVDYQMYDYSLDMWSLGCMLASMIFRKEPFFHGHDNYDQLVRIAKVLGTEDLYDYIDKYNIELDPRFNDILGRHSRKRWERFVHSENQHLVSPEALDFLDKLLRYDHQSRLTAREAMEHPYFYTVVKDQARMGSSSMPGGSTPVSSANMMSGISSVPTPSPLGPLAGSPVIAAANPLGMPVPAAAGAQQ
Protocol: 1. Materials and Methods • Effect of compounds of formula (I) on CK2 activity is measured according to Prudent et al. (Prudent, R. et al. (2008) Mol Cell Biochem 316(1-2): 71-85): compounds were tested in a radioactive assay performed in a final volume of 18 μL containing 3 μL of compounds at the indicated concentrations, 3 μL, of CK2α (36 ng) and a mixture containing 100 μM of peptide substrate ([…], SEQ ID No: 1), 10 mM MgCl2, and 100 μM [γ-^32P]-ATP. Assays were performed at room temperature for 5 min before termination by the addition of 60 μL of 4% TCA. ^32P incorporation into the peptide substrate was determined as previously described in Filhol et al. (Biochemistry 29: 9928-36, 1990). • Effect of compounds of formula (I) on c-kit activity is measured according to the manufacturer's recommendations (Millipore, reference 14-559): in a final reaction volume of 25 μL, c-Kit (5-10 mU) is incubated with 8 mM MOPS pH 7.0, 0.2 mM EDTA, 10 mM MnCl2, 25 μM ATP, 0.1 mg/mL poly(Glu, Tyr) 4:1, 10 mM MgAcetate and [γ-33P-ATP] (specific activity approx. 500 cpm/pmol, concentration as required). The reaction is initiated by the addition of the MgATP mix. After incubation for 40 minutes at room temperature, the reaction is stopped by the addition of 5 μL of a 3% phosphoric acid solution. 10 μL of the reaction is then spotted onto a Filtermat A and washed three times for 5 minutes in 75 mM phosphoric acid and once in methanol prior to drying and scintillation counting. • Effect of compounds of formula (I) on topoisomerase II activity is measured according to the manufacturer's recommendations (Vaxron, TA-001): in a final reaction volume of 10 μL, 1U topoisomerase IIα is incubated with 0.1M Tris-HCl, pH 8.0, 2 mM DTT, 20 mM MgCl2, 4 mM ATP, 0.2 M NaCl, 2 μg BSA, 500 ng Kinetoplast DNA and compounds to be assayed (from 10 mM stock solution in DMSO, final concentration of DMSO<1%). The reaction is initiated by the addition of topoisomerase IIα. After incubation for 15 min at 37° C., reaction is stopped by addition of 1 μL of stop solution (3% SDS, 1.5 mg·mL^−1 Proteinase K). Following an incubation of 30 minutes at 37° C., reaction mixture is resolved on an agarose gel (1% agarose) and DNA topoisomers are quantified by densitometric analysis. • Effect of compounds of formula (I) on DNA intercalation. DNA intercalation was performed using FID (Fluorescence Intercalator Displacement). This assay based on the loss of fluorescence of a DNA-bound intercalator (thiazole orange) upon displacement by a DNA-binding molecule. Briefly, the double stranded oligonucleotide […] […] After 20 minutes incubation, fluorescence is measured (excitation: 490 nm, emission: 520 nm). In this assay, compound auto-fluorescence was negative.

U373 cells [3] = assay: cell cycle distribution analysis (propidium iodide), U373; format: cell-based, human; details: 5 μM, 24 hours
Protocol: as §2, §3

U373 cells [4] = assay: inhibition of U373 cell proliferation (CellTiter-Glo viability); format: cell-based, human; details: 5 μM, 48 hours treatment, FIG. 4
Protocol: (§4) 1. […] The following day, the culture medium was replaced with fresh medium (Dulbecco's medium, Invitrogen Life Technologies, Inc., supplemented with 10% (v/v) fetal calf serum (FBS, BioWest)), containing increasing concentration of inhibitors or an equivalent amount of DMSO as control. Two days later, cell viability was measured with the CellTiter-Glo® Luminescent Cell Viability Assay (Promega) according to the manufacturer recommendations. • The inhibition of U373 cells proliferation is assessed with the same protocol that HeLa cells: one day after plating, U373 cells are treated with 5 μM of Compound 1, Compound 2 or DMSO. Results are given relative to the luminescence recorded for DMSO.

HeLa cells [5] = assay: inhibition of HeLa cell proliferation (CellTiter-Glo viability); format: cell-based, human; details: 48 hours treatment, FIG. 3
Protocol: as §4

topoisomerase IIα = target: T2, topoisomerase IIα (Homo sapiens, UniProt P11388); assay: topoisomerase II activity assay (kinetoplast DNA, Vaxron TA-001); format: biochemical; details: 10 μM compound
T2 construct: purchased Vaxron TA-001
T2 sequence (P11388 whole entry): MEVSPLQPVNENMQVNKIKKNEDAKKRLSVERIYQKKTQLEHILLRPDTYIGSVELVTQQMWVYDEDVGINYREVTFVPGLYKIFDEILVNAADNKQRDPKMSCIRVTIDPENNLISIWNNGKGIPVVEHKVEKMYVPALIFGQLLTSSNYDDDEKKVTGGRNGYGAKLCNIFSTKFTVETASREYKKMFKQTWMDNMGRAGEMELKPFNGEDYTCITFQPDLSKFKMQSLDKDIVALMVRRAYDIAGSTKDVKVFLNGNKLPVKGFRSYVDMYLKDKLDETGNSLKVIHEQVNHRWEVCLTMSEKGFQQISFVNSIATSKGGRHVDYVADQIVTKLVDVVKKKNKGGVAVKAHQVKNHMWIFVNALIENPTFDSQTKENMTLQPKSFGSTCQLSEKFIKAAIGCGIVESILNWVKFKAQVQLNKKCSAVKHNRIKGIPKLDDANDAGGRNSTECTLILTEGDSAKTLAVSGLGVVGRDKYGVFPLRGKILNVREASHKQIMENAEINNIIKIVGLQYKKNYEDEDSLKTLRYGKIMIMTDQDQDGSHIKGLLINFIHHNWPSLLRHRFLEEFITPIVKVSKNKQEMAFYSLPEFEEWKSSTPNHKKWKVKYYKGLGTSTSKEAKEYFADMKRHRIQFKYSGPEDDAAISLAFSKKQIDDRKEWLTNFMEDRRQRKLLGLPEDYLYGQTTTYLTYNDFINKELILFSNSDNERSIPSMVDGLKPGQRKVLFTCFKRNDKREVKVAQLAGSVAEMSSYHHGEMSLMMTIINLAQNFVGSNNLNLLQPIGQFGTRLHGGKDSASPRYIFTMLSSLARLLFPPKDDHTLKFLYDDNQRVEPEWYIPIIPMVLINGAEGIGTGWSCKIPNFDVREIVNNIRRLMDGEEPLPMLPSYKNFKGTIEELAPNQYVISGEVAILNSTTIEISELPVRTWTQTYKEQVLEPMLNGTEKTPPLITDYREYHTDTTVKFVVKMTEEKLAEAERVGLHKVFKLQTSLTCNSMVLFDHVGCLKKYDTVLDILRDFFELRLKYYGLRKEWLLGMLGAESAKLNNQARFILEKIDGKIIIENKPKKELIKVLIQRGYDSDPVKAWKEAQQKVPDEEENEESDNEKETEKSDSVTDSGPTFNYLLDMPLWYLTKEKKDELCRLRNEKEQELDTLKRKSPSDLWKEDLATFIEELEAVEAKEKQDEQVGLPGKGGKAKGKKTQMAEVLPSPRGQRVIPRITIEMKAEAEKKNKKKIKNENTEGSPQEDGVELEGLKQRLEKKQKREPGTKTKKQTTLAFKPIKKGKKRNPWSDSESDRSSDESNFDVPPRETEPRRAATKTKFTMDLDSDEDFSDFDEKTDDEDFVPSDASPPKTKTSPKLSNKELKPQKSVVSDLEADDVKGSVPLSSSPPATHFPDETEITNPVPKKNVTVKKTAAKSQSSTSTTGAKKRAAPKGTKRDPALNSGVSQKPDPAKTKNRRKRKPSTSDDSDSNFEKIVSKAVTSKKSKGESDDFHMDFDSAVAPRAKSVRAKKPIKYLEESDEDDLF
Protocol: as §1

U373 cells [6] = assay: colony formation assay by soft agar culture; format: cell-based; details: Homo sapiens, U373 MG, 360 h, 15 days
Protocol: The effect of compound on tumor cell tumorigenesis is tested on a colony formation assay.
The inhibition of colony formation assay by soft agar culture is performed as follows: U373 cells were poured on a 0.6% agar-DMEM-10% FBS layer, imbedded in 0.3% agar-DMEM-10% FBS, containing compounds (5 μM) or equivalent amount of DMSO. Number of colonies (more than 20 cells) was counted 15 days later in 10 fields/well. Experiment was done in duplicate at least twice.

U373 cells [7] = assay: in vivo inhibition of tumour growth, U373 xenograft in athymic nude mice
Protocol: All experimental procedures adhered to local ethical committee (Comité régional d'éthique pour l'Expérimentation animale CREEA, Rhône Alpes—protocol n°286). Female Harlan athymic nude mice (6-8 weeks) were inoculated s.c. into the right flank with 7.5×10^5 U373 cells. When tumors reaches±50 mm^3 (volume=length×width×height), animals were treated i.p. 3 times weekly (every two days) for 2 weeks, with Compound 1 (0.14 mg/100 μL/injection-4 mice) dissolved in PEG3350 22.5%, BSA 0.45% or equivalent DMSO (10% final-3 mice) dissolved in same buffer (control group). Body weight and tumor volume were determined twice weekly. The experiment was terminated when tumor volume was about 1000 mm^3. Results are presented as mean±standard error of the mean (SEM).

Compound | % DNA intercalation (10 μM) [1] [%] | apoptotic cells (HeLa cells [2]) | cell cycle effect (HeLa cells [2]) | phosphorylated CK2 reporter isoform (CK2) | % remaining c-kit activity (10 μM) (c-Kit) [%] | % remaining CK2 activity (10 μM) (CK2α) [%] | IC50 (CK2α) [nM] | cell cycle effect (U373 cells [3]) | reduction of U373 cell proliferation (U373 cells [4]) | inhibition of HeLa cell proliferation (HeLa cells [5]) | % remaining topoisomerase II activity (10 μM) (topoisomerase IIα) [%] | inhibition at 5 µM (U373 cells [6]) [%] | tumor size, times smaller than DMSO group (U373 cells [7]; 15 days post first compound injection, i.p. 0.14 mg/injection) [times] | tolerability (U373 cells [7]; at the doses applied) | variations in body weight (U373 cells [7]; i.p. 0.14 mg/injection, 3 times weekly for 2 weeks) | tumor incidence compared to DMSO (U373 cells [7]; i.p. 0.14 mg/injection, 3 times weekly for 2 weeks, all time points)
Cc1cnc(Cl)c2c1[nH]c1ccc3cc(O)ccc3c12 [Compound 2] | 66.4 | concomitant increase of apoptotic cells | cell cycle arrest with a substantial accumulation in G2/M-phase | disappeared in a dose-dependent manner | 16.9 | 3.5 | 670 | cell cycle arrest with a substantial accumulation in G2/M-phase | potent to reduce cell proliferation | strong inhibition of tumour cell proliferation even at low doses | 77 |  |  |  |  | 
Cc1cnc(Cl)c2c1[nH]c1c3ccc(O)cc3ccc12 [Compound 1] | 62.0 | concomitant increase of apoptotic cells | cell cycle arrest with a substantial accumulation in G2/M-phase | disappeared in a dose-dependent manner | 60.4 | 1.4 | 1500 | cell cycle arrest with a substantial accumulation in G2/M-phase | potent to reduce cell proliferation | strong inhibition of tumour cell proliferation even at low doses | 106.8 | 50 | 4.7 | well tolerated | not statistically significant | significantly reduced
